Assays:
Assay in all cases: biochemical
Conditions in all cases: read-out: Binding / ================================================= / % Inhibition of Control Specific Binding
[1] = molecular target: T1, 5-HT2A (h) (agonist radioligand) (Homo sapiens, UniProt P28223); parameters: Eurofins SafetyScreen 87 binding part: inhibition of control specific ligand binding, single concentration
T1 construct: gene HTR2A

[2] = molecular target: T2, mGluR5 (h) (agonist radioligand) (Homo sapiens, UniProt P41594)
T2 construct: gene GRM5

[3] = molecular target: T3, 5-HT1A (h) (agonist radioligand) (Homo sapiens, UniProt P08908)
T3 construct: gene HTR1A

[4] = molecular target: T4, kappa (h) (KOP) (agonist radioligand) (Homo sapiens, UniProt P41145)
T4 construct: gene OPRK1

[5] = molecular target: T5, dopamine transporter (h) (antagonist radioligand) (Homo sapiens, UniProt Q01959)
T5 construct: gene SLC6A3

[6] = molecular target: T6, 5-HT3 (h) (antagonist radioligand) (Homo sapiens, UniProt P46098)
T6 construct: gene HTR3A

[7] = molecular target: T7, D2S (h) (agonist radioligand) (Homo sapiens, UniProt P14416)
T7 construct: gene DRD2
T7 sequence (P14416 whole entry): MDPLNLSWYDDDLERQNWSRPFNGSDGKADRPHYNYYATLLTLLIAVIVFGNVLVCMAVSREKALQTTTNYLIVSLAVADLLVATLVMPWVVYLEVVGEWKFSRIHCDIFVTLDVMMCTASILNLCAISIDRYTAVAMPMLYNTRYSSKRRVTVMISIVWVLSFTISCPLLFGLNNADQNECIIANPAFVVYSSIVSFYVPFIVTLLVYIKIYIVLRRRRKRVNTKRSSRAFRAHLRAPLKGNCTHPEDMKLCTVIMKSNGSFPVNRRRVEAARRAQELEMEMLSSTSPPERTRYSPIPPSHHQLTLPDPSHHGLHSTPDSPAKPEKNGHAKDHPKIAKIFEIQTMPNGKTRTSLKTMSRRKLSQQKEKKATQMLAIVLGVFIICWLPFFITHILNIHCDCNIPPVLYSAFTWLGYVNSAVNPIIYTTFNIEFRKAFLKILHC

[8] = molecular target: T8, GABAA1 (h) (alpha 1,beta 2,gamma 2) (agonist radioligand) (Homo sapiens, UniProt P14867+P47870)
T8 construct: gene GABRA1

[9] = molecular target: T9, M4 (h) (antagonist radioligand) (Homo sapiens, UniProt P08173)
T9 construct: gene CHRM4
T9 sequence (P08173 whole entry): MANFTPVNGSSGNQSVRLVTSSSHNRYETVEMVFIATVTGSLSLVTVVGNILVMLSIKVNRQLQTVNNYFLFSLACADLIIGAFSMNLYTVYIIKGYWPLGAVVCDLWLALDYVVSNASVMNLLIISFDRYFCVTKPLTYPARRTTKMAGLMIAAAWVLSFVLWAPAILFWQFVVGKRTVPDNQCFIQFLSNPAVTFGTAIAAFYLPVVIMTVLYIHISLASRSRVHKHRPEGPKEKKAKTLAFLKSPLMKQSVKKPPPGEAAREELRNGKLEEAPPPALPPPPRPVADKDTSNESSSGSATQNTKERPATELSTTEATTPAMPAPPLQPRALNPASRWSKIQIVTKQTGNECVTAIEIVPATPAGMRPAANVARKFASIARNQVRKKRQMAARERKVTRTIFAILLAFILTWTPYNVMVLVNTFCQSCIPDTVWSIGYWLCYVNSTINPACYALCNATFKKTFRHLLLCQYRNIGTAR

[10] = molecular target: T10, NK1 (h) (agonist radioligand) (Homo sapiens, UniProt P25103)
T10 construct: gene TACR1

[11] = molecular target: T11, mu (MOP) (h) (agonist radioligand) (Homo sapiens, UniProt P35372)
T11 construct: gene OPRM1

[12] = molecular target: T12, RARalpha (h) (agonist radioligand) (Homo sapiens, UniProt P10276)
T12 construct: gene RARA
T12 sequence (P10276 whole entry): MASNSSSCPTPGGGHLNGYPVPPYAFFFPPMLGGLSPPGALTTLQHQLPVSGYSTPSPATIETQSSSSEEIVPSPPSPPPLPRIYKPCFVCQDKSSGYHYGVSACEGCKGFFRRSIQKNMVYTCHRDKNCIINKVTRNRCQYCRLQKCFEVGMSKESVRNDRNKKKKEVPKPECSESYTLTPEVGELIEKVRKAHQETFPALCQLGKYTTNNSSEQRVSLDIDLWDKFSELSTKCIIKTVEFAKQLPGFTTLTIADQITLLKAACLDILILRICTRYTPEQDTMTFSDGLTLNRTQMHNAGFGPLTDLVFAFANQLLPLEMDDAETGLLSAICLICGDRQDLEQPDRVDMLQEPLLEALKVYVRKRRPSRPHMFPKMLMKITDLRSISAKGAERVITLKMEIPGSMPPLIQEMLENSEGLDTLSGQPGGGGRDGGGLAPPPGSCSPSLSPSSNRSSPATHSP

[13] = molecular target: T13, PPARgamma h) (agonist radioligand) (Homo sapiens, UniProt P37231)
T13 construct: gene PPARG
T13 sequence (P37231 whole entry): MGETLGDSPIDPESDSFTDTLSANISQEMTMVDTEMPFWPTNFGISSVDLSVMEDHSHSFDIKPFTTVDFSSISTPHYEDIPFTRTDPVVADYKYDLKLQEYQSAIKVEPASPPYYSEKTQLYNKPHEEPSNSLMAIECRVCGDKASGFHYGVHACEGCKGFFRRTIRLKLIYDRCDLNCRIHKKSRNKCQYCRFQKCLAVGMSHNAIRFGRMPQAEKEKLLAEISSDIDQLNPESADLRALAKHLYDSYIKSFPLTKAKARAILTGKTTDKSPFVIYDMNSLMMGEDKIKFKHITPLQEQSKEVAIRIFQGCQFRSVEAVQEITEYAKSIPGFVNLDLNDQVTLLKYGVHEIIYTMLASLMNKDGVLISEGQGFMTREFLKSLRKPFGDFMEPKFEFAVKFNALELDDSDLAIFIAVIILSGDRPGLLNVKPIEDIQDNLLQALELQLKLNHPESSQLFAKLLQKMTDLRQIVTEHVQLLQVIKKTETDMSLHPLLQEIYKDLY

[14] = molecular target: T14, GABAB(1b) (h) (antagonist radioligand) (Homo sapiens, UniProt Q9UBS5)
T14 construct: gene GABBR1
T14 sequence (Q9UBS5 whole entry): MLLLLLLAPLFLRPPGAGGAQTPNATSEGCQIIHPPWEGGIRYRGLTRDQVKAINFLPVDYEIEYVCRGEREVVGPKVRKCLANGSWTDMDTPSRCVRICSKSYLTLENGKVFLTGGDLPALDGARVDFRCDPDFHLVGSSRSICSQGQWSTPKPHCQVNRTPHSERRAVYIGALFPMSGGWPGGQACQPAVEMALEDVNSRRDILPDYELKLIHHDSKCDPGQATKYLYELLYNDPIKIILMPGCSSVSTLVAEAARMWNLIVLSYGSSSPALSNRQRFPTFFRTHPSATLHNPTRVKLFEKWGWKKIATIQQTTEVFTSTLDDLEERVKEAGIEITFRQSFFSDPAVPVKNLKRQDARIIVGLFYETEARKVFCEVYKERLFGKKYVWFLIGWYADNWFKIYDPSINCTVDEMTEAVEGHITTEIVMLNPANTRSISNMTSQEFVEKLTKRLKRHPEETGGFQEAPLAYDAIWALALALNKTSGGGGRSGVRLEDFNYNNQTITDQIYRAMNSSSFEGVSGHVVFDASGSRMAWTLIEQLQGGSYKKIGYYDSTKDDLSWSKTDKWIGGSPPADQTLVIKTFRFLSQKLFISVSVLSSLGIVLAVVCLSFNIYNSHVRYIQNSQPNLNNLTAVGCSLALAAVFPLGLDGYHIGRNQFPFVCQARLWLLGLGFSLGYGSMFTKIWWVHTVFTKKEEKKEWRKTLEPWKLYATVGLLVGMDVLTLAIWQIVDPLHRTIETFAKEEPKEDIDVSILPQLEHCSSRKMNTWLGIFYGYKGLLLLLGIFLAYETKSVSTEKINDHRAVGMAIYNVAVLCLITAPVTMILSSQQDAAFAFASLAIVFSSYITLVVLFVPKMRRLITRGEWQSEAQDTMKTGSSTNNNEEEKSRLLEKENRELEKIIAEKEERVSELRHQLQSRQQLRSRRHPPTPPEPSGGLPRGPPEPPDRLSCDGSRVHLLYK

[15] = molecular target: T15, H1 (h) (antagonist radioligand) (Homo sapiens, UniProt P35367)
T15 construct: gene HRH1
T15 sequence (P35367 whole entry): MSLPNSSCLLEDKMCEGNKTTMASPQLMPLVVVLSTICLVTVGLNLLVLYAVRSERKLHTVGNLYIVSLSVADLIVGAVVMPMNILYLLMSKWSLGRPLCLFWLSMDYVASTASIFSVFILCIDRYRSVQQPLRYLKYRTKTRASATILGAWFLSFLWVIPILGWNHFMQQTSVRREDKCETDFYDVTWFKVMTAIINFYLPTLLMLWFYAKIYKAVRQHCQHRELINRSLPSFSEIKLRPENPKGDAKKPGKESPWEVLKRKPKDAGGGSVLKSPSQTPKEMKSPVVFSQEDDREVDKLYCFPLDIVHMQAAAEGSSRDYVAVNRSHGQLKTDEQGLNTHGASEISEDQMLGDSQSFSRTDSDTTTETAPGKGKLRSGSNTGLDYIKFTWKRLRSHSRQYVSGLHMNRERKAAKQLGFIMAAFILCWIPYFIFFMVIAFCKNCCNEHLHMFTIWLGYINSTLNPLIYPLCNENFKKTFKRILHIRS

[16] = molecular target: T16, V1a (h) (agonist radioligand) (Homo sapiens, UniProt P37288)
T16 construct: gene AVPR1A
T16 sequence (P37288 whole entry): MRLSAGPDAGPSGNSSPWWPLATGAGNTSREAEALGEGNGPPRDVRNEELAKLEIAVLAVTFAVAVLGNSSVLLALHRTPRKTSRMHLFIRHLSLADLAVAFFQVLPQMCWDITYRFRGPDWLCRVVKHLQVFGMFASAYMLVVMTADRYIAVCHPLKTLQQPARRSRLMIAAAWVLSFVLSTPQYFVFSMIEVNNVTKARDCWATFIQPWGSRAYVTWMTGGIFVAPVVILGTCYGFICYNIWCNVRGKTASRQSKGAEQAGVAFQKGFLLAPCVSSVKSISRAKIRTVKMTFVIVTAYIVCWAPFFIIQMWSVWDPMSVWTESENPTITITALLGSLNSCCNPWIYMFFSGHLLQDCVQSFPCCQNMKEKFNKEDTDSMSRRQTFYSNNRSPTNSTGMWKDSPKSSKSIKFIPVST

[17] = molecular target: T17, CCK2 (CCKB) (h) (agonist radioligand) (Homo sapiens, UniProt P32239)
T17 construct: gene CCKBR

[18] = molecular target: T18, PR (h) (agonist radioligand) (Homo sapiens, UniProt P06401)
T18 construct: gene PGR

[19] = molecular target: T19, B2 (h) (agonist radioligand) (Homo sapiens, UniProt P30411)
T19 construct: gene BDKRB2
T19 sequence (P30411 whole entry): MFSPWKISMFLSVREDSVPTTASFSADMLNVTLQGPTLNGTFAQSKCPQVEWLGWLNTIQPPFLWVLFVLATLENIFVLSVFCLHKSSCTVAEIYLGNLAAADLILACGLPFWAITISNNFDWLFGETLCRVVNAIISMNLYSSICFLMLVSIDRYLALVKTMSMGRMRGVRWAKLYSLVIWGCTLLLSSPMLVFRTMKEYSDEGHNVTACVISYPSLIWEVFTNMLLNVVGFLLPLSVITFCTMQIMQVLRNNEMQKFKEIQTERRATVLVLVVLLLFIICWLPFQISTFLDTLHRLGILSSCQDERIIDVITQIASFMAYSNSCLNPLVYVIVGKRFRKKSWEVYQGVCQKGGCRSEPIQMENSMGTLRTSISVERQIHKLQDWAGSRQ

[20] = molecular target: T20, alpha 1B (h) (antagonist radioligand) (Homo sapiens, UniProt P35368)
T20 construct: gene ADRA1B

[21] = molecular target: T21, PAF (h) (agonist radioligand) (Homo sapiens, UniProt P25105)
T21 construct: gene PTAFR
T21 sequence (P25105 whole entry): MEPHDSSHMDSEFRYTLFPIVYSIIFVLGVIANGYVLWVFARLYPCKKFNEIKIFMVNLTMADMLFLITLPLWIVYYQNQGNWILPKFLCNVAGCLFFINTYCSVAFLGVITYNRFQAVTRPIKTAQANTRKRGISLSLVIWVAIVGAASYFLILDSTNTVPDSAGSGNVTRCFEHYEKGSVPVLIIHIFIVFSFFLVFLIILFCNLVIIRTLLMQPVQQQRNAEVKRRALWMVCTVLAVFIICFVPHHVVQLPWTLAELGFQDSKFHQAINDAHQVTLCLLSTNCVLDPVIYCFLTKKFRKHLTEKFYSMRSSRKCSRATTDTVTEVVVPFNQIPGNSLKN

[22] = molecular target: T22, alpha 2B (h) (antagonist radioligand) (Homo sapiens, UniProt P18089)
T22 construct: gene ADRA2B
T22 sequence (P18089 whole entry): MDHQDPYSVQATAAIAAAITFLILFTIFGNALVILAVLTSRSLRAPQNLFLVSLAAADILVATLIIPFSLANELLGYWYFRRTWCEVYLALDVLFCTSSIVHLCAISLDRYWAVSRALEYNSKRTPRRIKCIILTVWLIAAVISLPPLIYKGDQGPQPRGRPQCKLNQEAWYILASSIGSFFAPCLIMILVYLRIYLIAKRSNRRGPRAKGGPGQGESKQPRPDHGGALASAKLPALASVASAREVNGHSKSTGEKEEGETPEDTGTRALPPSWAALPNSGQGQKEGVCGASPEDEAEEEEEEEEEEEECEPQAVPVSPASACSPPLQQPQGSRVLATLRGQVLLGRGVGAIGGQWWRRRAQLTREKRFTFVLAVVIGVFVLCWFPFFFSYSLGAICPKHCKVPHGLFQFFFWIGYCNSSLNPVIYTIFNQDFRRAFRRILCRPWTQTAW

[23] = molecular target: T23, MC4 (h) (agonist radioligand) (Homo sapiens, UniProt P32245)
T23 construct: gene MC4R

[24] = molecular target: T24, CB1 (h) (agonist radioligand) (Homo sapiens, UniProt P21554)
T24 construct: gene CNR1

[25] = molecular target: T25, D2L (h) (antagonist radioligand) (Homo sapiens, UniProt P14416)
T25 construct: gene DRD2
T25 sequence (P14416 whole entry): as the sequence (P14416 whole entry) above

[26] = molecular target: T26, D1 (h) (antagonist radioligand) (Homo sapiens, UniProt P21728)
T26 construct: gene DRD1

[27] = molecular target: T27, M3 (h) (antagonist radioligand) (Homo sapiens, UniProt P20309)
T27 construct: gene CHRM3

[28] = molecular target: T28, N neuronal alpha 4beta 2 (h) (agonist radioligand) (Homo sapiens, UniProt P17787+P43681)
T28 construct: gene CHRNB2

[29] = molecular target: T29, N muscle-type (h) (antagonist radioligand) (Homo sapiens, UniProt P02708+P07510+Q07001)
T29 construct: gene CHRNA1

[30] = molecular target: T30, CB2 (h) (agonist radioligand) (Homo sapiens, UniProt P34972)
T30 construct: gene CNR2

## C[C@@H](Nc1ncnc2ccc(-c3cnc(Cl)c(NS(C)(=O)=O)c3)cc12)c1ccccc1 [MTX-531, (R)-N-(2-chloro-5-(4-((1-phenylethyl)amino)quinazolin-6-yl)pyridin-3-yl)methane-sulfonamide]
[1]
  inhibition at 10 µM: -5%
[2]
  inhibition at 10 µM: 5%
[3]
  inhibition at 10 µM: 6%
[4]
  inhibition at 10 µM: 7%
[5]
  inhibition at 10 µM: 12%
[6]
  inhibition at 10 µM: 10%
[7]
  inhibition at 10 µM: -4%
[8]
  inhibition at 10 µM: -5%
[9]
  inhibition at 10 µM: 5%
[10]
  inhibition at 10 µM: -5%
[11]
  inhibition at 10 µM: 25%
[12]
  inhibition at 10 µM: 4%
[13]
  inhibition at 10 µM: 48%
[14]
  inhibition at 10 µM: -3%
[15]
  inhibition at 10 µM: -7%
[16]
  inhibition at 10 µM: 2%
[17]
  inhibition at 10 µM: -8%
[18]
  inhibition at 10 µM: -14%
[19]
  inhibition at 10 µM: -1%
[20]
  inhibition at 10 µM: 1%
[21]
  inhibition at 10 µM: 1%
[22]
  inhibition at 10 µM: 2%
[23]
  inhibition at 10 µM: 1%
[24]
  inhibition at 10 µM: -2%
[25]
  inhibition at 10 µM: -17%
[26]
  inhibition at 10 µM: 2%
[27]
  inhibition at 10 µM: -4%
[28]
  inhibition at 10 µM: -8%
[29]
  inhibition at 10 µM: 6%
[30]
  inhibition at 10 µM: 39%

Source: paper PMC11357990, “A first-in-class selective inhibitor of EGFR and PI3K offers a single-molecule approach to targeting adaptive resistance” (Nature Cancer, 2024)
